2 compounds from paper PMC8887546, “Design and Synthesis of Brain Penetrant Glycopeptide Analogues of PACAP With Neuroprotective Potential for Traumatic Brain Injury and Parkinsonism” (Frontiers in drug discovery, 2022) can be followed below.

Common to all, as to assay type: cell-based
In test [1] the target is T1, human PAC1 receptor (Homo sapiens, UniProt P41586).
T1 construct: expressed in transfected cells; host or cells: CHO cells (G418 selection)
T1 sequence (P41586 21-468): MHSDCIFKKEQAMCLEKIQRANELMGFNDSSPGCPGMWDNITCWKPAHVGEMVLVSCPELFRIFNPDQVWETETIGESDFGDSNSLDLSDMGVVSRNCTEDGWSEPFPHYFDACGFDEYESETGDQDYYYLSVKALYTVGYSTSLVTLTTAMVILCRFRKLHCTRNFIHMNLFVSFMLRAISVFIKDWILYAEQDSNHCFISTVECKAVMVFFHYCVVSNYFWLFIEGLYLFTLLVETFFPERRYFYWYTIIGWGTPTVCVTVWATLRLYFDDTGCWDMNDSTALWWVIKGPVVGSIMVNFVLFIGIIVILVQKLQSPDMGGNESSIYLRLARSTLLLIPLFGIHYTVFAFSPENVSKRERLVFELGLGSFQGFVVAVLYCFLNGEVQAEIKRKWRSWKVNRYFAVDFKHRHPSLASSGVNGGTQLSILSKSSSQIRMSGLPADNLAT
Description: cAMP stimulation in CHO cells expressing PAC1. Particulars: for Emax: CHO. In a few lines: (§1)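 Serum-starved CHO cells expressing human receptors were pre-treated 20 min with 500 μM IBMX, then exposed to agonist concentration curves for 10 min in 500 μM IBMX. cAMP quantified by competition with bovine PKA and ^3H-cAMP (1 h, room temperature), scintillation read.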

Test [2] addresses T2, human VPAC1 receptor (Homo sapiens, UniProt P32241).
T2 construct: expressed in transfected cells; host or cells: CHO cells (G418 selection)
T2 sequence (P32241 31-457): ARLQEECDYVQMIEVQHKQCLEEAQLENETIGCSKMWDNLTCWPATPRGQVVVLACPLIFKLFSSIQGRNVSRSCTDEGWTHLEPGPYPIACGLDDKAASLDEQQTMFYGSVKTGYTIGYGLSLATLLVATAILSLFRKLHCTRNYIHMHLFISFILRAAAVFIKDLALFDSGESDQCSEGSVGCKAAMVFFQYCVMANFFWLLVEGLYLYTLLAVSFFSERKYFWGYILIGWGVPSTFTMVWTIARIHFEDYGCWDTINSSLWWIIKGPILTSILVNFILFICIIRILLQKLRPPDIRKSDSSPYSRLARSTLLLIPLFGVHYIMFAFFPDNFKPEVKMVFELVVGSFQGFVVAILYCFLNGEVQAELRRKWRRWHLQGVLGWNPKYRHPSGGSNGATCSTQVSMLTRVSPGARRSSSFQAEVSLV
Description: cAMP stimulation in CHO cells expressing VPAC1. Particulars: for Emax: CHO, read-out: VPAC1 Emax; for Receptor selectivity ratio VPAC1/PAC1: ratio of cAMP EC50 values; for EC50: read-out: VPAC1 EC50.

The target in test [3] is T3, human VPAC2 receptor (Homo sapiens, UniProt P41587).
T3 construct: expressed in transfected cells; host or cells: CHO cells (G418 selection)
T3 sequence (P41587 24-438): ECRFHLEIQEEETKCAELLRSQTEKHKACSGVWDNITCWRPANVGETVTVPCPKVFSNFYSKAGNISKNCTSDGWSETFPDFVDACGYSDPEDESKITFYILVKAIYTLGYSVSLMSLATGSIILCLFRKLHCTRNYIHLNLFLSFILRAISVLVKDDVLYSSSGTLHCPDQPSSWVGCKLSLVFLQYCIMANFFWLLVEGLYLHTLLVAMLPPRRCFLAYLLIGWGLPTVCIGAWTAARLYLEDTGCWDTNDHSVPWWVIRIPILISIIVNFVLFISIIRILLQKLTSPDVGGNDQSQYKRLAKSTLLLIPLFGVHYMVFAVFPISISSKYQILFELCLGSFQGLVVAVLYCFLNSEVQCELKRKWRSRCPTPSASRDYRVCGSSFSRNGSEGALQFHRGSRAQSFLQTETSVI
As to the kind of experiment: cAMP stimulation in CHO cells expressing VPAC2. The conditions noted are these: for Emax: CHO; for Receptor selectivity ratio VPAC2/PAC1 / Receptor selectivity ratio VPAC2/VPAC1: ratio of cAMP EC50 values. In a few lines: as §1

Take `CC[C@H](C)[C@H](NC(=O)CNC(=O)[C@H](CC(=O)O)NC(=O)[C@H](CO)NC(=O)[C@@H](N)Cc1c[nH]cn1)C(=O)N[C@@H](Cc1ccccc1)C(=O)N[C@H](C(=O)N[C@@H](CC(=O)O)C(=O)N[C@@H](CO)C(=O)N[C@@H](Cc1ccc(O)cc1)C(=O)N[C@@H](CO)C(=O)N[C@@H](CCCNC(=N)N)C(=O)N[C@@H](Cc1ccc(O)cc1)C(=O)N[C@@H](CCCNC(=N)N)C(=O)N[C@@H](CCCCN)C(=O)N[C@@H](CCC(N)=O)C(=O)N[C@@H](CC(C)C)C(=O)N[C@@H](C)C(=O)N[C@H](C(=O)N[C@@H](CCCCN)C(=O)N[C@@H](CCCCN)C(=O)N[C@@H](Cc1ccc(O)cc1)C(=O)N[C@@H](CC(C)C)C(=O)N[C@@H](C)C(=O)N[C@@H](C)C(=O)N[C@H](C(=O)N[C@@H](CC(C)C)C(=O)N[C@@H](CO[C@@H]1O[C@H](CO[C@H]2O[C@H](CO)[C@H](O)[C@H](O)[C@H]2O)[C@@H](O)[C@H](O)[C@H]1O)C(N)=O)C(C)C)C(C)C)[C@@H](C)O` [Compound 2LS98Mel]: in test [1], the response was half-maximal at 0.57 nM (EC50) and the Emax was determined as 99%. In test [2], the maximum response (Emax) is 102%, the “Receptor selectivity ratio VPAC1/PAC1” value is given as 0.96 and the EC50 came to 0.55 nM. In test [3], a half-maximal effect (EC50) was put at 9.4 nM, the Emax was 86%, the “Receptor selectivity ratio VPAC2/PAC1” value is on record as 16.49 and the “Receptor selectivity ratio VPAC2/VPAC1” value amounted to 17.09.

In test [1], `CC[C@H](C)[C@H](NC(=O)CNC(=O)[C@H](CC(=O)O)NC(=O)[C@H](CO)NC(=O)[C@@H](N)Cc1c[nH]cn1)C(=O)N[C@@H](Cc1ccccc1)C(=O)N[C@H](C(=O)N[C@@H](CC(=O)O)C(=O)N[C@@H](CO)C(=O)N[C@@H](Cc1ccc(O)cc1)C(=O)N[C@@H](CO)C(=O)N[C@@H](CCCNC(=N)N)C(=O)N[C@@H](Cc1ccc(O)cc1)C(=O)N[C@@H](CCCNC(=N)N)C(=O)N[C@@H](CCCCN)C(=O)N[C@@H](CCC(N)=O)C(=O)N[C@@H](CC(C)C)C(=O)N[C@@H](C)C(=O)N[C@H](C(=O)N[C@@H](CCCCN)C(=O)N[C@@H](CCCCN)C(=O)N[C@@H](Cc1ccc(O)cc1)C(=O)N[C@@H](CC(C)C)C(=O)N[C@@H](C)C(=O)N[C@@H](C)C(=O)N[C@H](C(=O)N[C@@H](CC(C)C)C(=O)N[C@@H](CO[C@@H]1O[C@H](CO)[C@@H](O)[C@H](O)[C@H]1O)C(=O)N[C@@H](CO[C@@H]1O[C@H](CO)[C@@H](O)[C@H](O)[C@H]1O)C(N)=O)C(C)C)C(C)C)[C@@H](C)O` [Compound 2LS140] gave an EC50 of 2.23 nM and an Emax of 102%. Besides, in test [2], the maximal effect (Emax) was 108%, the “Receptor selectivity ratio VPAC1/PAC1” value was found to be 1.37 and the concentration for a half-maximal effect (EC50) came out at 3.06 nM. Also, in test [3], it took 156 nM to reach a half-maximal effect (EC50), the Emax came to 106%, the “Receptor selectivity ratio VPAC2/PAC1” value was determined as 69.96 and the “Receptor selectivity ratio VPAC2/VPAC1” value was found to be 50.98.

For orientation: EC50 means the concentration giving half of the maximal effect. The Emax is the greatest response seen or fitted, relative to the assay's reference.
